Measured values taken from patent US10202370B2, “Benzimidazole derivatives as selective proteine kinase inhibitors” (AB SCIENCE, priority 2013, dated 2019).

Target: c-kit WT (Homo sapiens (Human), UniProt P10721)
Assay: Proliferation assay (CellTiter-Blue) on BaF3 Kit WT cell line
Format: cell-based
Settings: BaF3 Kit WT cell line (murine Ba/F3 expressing Human Kit WT, with murine SCF), 48 hours
In short: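 Ba/F3 cells expressing human Kit WT, maintained in RPMI/10% FCS with 250 ng/ml murine SCF, were seeded at 2.10^4 cells/well and exposed to ½ serial dilutions (0–10 μM) for 48 h at 37° C. Viability was measured by CellTiter-Blue fluorescence (544Ex/590Em, 4 h) in triplicate as % of untreated proliferation.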

Sequence of c-kit WT (P10721 26-976): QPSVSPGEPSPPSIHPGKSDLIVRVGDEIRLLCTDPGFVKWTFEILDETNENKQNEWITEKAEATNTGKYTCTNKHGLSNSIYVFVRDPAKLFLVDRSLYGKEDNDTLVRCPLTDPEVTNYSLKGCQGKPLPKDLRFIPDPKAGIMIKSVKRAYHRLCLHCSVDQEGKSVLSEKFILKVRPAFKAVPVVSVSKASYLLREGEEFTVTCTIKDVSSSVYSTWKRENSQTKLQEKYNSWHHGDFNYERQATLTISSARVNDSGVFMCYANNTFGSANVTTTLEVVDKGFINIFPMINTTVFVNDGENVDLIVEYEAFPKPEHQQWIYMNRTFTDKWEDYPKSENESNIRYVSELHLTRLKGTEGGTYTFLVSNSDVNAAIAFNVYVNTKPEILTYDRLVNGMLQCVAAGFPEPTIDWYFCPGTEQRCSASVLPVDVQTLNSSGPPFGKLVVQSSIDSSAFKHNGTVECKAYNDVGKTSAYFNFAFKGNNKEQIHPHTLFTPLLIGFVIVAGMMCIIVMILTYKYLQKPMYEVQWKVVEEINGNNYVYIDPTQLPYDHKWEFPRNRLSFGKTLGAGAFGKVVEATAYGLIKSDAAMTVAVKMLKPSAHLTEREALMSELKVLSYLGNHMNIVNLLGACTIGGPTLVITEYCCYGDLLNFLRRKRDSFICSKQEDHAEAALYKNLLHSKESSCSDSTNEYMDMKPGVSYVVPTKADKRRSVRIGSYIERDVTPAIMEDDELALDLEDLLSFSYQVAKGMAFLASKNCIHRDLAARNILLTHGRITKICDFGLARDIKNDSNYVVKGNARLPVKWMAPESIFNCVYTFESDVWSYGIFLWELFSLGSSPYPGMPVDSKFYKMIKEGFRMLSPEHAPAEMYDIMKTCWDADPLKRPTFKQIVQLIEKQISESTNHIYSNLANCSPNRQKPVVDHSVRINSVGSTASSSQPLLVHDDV

SMILES	IC50
Cc1cc2[nH]c(-c3ccc(C(F)F)cc3)nc2cc1Nc1nc(-c2cccnc2)cs1 [Compound 097, [2-(4-Difluoromethyl-phenyl)-6-methyl-1H-benzoimidazol-5-yl]-(4-pyridin-3-yl-thiazol-2-yl)-amine]	≤ 1 µM
Cc1cc2c(cc1Nc1nc(-c3cccnc3)cs1)nc(-c1ccc(CN3CCN(C)CC3)cc1)n2C [Compound 098, {1,6-Dimethyl-2-[4-(4-methyl-piperazin-1-ylmethyl)-phenyl]-1H-benzoimidazol-5-yl}-(4-pyridin-3-yl-thiazol-2-yl)-amine]	1 to 10 µM
Cc1cc2c(cc1Nc1nc(-c3ccncc3)cs1)nc(-c1ccc(CN3CCN(C)CC3)cc1)n2C [Compound 099, {1,6-Dimethyl-2-[4-(4-methyl-piperazin-1-ylmethyl)-phenyl]-1H-benzoimidazol-5-yl}-(4-pyridin-4-yl-thiazol-2-yl)-amine]	1 to 10 µM
Cc1cc2c(cc1Nc1nc(-c3ccncc3)cs1)nc(-c1cccc(C(F)F)c1)n2C(C)C [Compound 100, [2-(3-Difluoromethyl-phenyl)-1-isopropyl-6-methyl-1H-benzoimidazol-5-yl]-(4-pyridin-4-yl-thiazol-2-yl)-amine]	≤ 1 µM
Cc1cc2c(cc1Nc1nc(-c3ccncc3)cs1)nc(-c1cccc(C(F)(F)F)c1)n2C(C)C [Compound 101, [1-Isopropyl-6-methyl-2-(3-trifluoromethyl-phenyl)-1H-benzoimidazol-5-yl]-(4-pyridin-4-yl-thiazol-2-yl)-amine]	≤ 1 µM
Cc1cccc(-c2nc3cc(Nc4nc(-c5ccncc5)cs4)c(C)cc3n2C(C)C)c1 [Compound 102, (1-Isopropyl-6-methyl-2-m-tolyl-1H-benzoimidazol-5-yl)-(4-pyridin-4-yl-thiazol-2-yl)-amine]	≤ 1 µM
CCn1c(-c2cccc(C(F)F)c2)nc2cc(Nc3nc(-c4ccncc4)cs3)c(C)cc21 [Compound 103]	≤ 1 µM
CCn1c(-c2cccc(C)c2)nc2cc(Nc3nc(-c4ccncc4)cs3)c(C)cc21 [Compound 104, (1-Ethyl-6-methyl-2-m-tolyl-1H-benzoimidazol-5-yl)-(4-pyridin-4-yl-thiazol-2-yl)-amine]	≤ 1 µM
CCn1c(-c2cccc(C(F)(F)F)c2)nc2cc(Nc3nc(-c4ccncc4)cs3)c(C)cc21 [Compound 105, [1-Ethyl-6-methyl-2-(3-trifluoromethyl-phenyl)-1H-benzoimidazol-5-yl]-(4-pyridin-4-yl-thiazol-2-yl)-amine]	≤ 1 µM
Cc1cc2[nH]c(-c3cccc(C(F)(F)F)c3)nc2cc1Nc1nc(-c2ccnc(Cl)c2)cs1 [Compound 106, [4-(2-Chloro-pyridin-4-yl)-thiazol-2-yl]-[6-methyl-2-(3-trifluoromethyl-phenyl)-1H-benzoimidazol-5-yl]-amine]	≤ 1 µM
Cc1cccc(-c2nc3cc(Nc4nc(-c5ccnc(Cl)c5)cs4)c(C)cc3[nH]2)c1 [Compound 107, [4-(2-Chloro-pyridin-4-yl)-thiazol-2-yl]-(6-methyl-2-m-tolyl-1H-benzoimidazol-5-yl)-amine]	≤ 1 µM
Cc1cc2[nH]c(-c3cccc(C(F)F)c3)nc2cc1Nc1nc(-c2ccnc(Cl)c2)cs1 [Compound 108, [4-(2-Chloro-pyridin-4-yl)-thiazol-2-yl]-[2-(3-difluoromethyl-phenyl)-6-methyl-1H-benzoimidazol-5-yl]-amine]	≤ 1 µM
CCn1c(-c2cccc(C(F)F)c2)nc2cc(Nc3nc(-c4cccnc4)cs3)c(C)cc21 [Compound 109]	≤ 1 µM
CCn1c(-c2cccc(C(F)(F)F)c2)nc2cc(Nc3nc(-c4cccnc4)cs3)c(C)cc21 [Compound 110, [1-Ethyl-6-methyl-2-(3-trifluoromethyl-phenyl)-1H-benzoimidazol-5-yl]-(4-pyridin-3-yl-thiazol-2-yl)-amine]	≤ 1 µM
Cc1cc2c(cc1Nc1nc(-c3ccc(C#N)cc3)cs1)nc(-c1cccc(C(F)F)c1)n2C [Compound 111, 4-{2-[2-(3-Difluoromethyl-phenyl)-1,6-dimethyl-1H-benzoimidazol-5-ylamino]-thiazol-4-yl}-benzonitrile]	≤ 1 µM
